# In PubChem BioAssay (NCI):
#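 Cultured in 96-well plates, cells were exposed to test compound for 48 hours across five concentrations. Here, GI50 denotes the concentration required for 50% inhibition of growth. TGI denotes the concentration required for complete inhibition of growth.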
# Experiments:
# Experiment in all cases: growth of human tumour cells (NCI), 48 h
# HOP-92 NSCLC = tested on: HOP-92 NSCLC
# IGROV1 ovarian = tested on: IGROV1 ovarian
# MCF7 breast = tested on: MCF7 breast
# NCI-H23 lung = tested on: NCI-H23 lung
# OVCAR-4 ovarian = tested on: OVCAR-4 ovarian
# OVCAR-5 ovarian = tested on: OVCAR-5 ovarian
# OVCAR-8 ovarian = tested on: OVCAR-8 ovarian
# PC-3 prostate = tested on: PC-3 prostate
# SF-268 CNS = tested on: SF-268 CNS
# UACC-62 melanoma = tested on: UACC-62 melanoma
SMILES,GI50 (HOP-92 NSCLC) [nM],TGI (HOP-92 NSCLC) [µM],GI50 (IGROV1 ovarian) [µM],TGI (IGROV1 ovarian) [µM],GI50 (MCF7 breast) [µM],TGI (MCF7 breast) [µM],GI50 (NCI-H23 lung) [µM],TGI (NCI-H23 lung) [µM],GI50 (OVCAR-4 ovarian) [µM],TGI (OVCAR-4 ovarian) [µM],GI50 (OVCAR-5 ovarian) [µM],TGI (OVCAR-5 ovarian) [µM],GI50 (OVCAR-8 ovarian) [µM],TGI (OVCAR-8 ovarian) [µM],GI50 (PC-3 prostate) [µM],TGI (PC-3 prostate) [µM],GI50 (SF-268 CNS) [µM],TGI (SF-268 CNS) [µM],GI50 (UACC-62 melanoma) [nM],TGI (UACC-62 melanoma) [µM]
Oc1c(I)cc(I)c2cccnc12,8480,83.3,4.24,30.8,3.89,19.9,2.19,9.52,3.94,> 100,3.57,24.6,3.35,47.1,4.68,> 100,5.09,48.3,3090,15.6
OCCNC1c2cc(Cl)ccc2-c2c(Cl)cc(Cl)cc21 (stereo not given),,55.8,,47,,53.8,,> 100,,> 100,,> 100,,> 100,,77.3,,> 100,,> 100
O=C(CCCCCCN1CC(=O)N2[C@@H](c3ccc(Cl)c(Cl)c3)c3[nH]c4ccccc4c3C[C@H]2C1=O)NO,1590,7.41,1.32,5.07,1.87,15,4.73,13.5,4.71,23.8,3.86,13.4,2.82,17.9,2.39,10.7,4.66,10.5,1660,7.07
CC(=O)NCc1cccc(C#Cc2cncnc2Nc2ccc(OCc3cccc(F)c3)c(Cl)c2)c1,5660,> 25,5.51,> 25,9.18,> 25,14.1,> 25,12.9,> 25,9.13,> 25,9.58,> 25,8.37,> 25,16.7,> 25,9870,> 25
CC(C)(O)CNc1nc(Nc2ccnc(C(F)(F)F)c2)nc(-c2cccc(C(F)(F)F)n2)n1,23400,74.2,28.6,74.5,18.2,42.5,18.1,42.8,23.9,86.9,22.5,63,26.3,84.8,27.4,> 100,23.1,76.4,16400,32.6
CN(CCNCc1ccccn1)CCNCc1ccccn1,2020,5.27,3.23,12.6,3.08,10.9,3.55,> 100,2.85,8.99,2.66,8.57,2.99,7.62,2.27,7.59,3.96,15.4,2180,4.74
COC(=O)c1cncc(/C=C/c2c(C)cc(O)cc2C)c1,4970,> 22.1,> 19.8,> 25,11.5,> 18.7,10.5,> 25,8.11,> 25,> 24.1,> 25,17.9,> 25,12.2,> 25,14.1,> 25,7710,> 25
Cc1ccc(-c2nc([P+](c3ccccc3)(c3ccccc3)c3ccccc3)c(S(=O)(=O)c3ccc(C)cc3)o2)cc1,1430,3.13,1.61,3.15,1.52,3.83,1.68,3.5,1.4,2.83,1.58,3.18,1.32,4.17,1.43,3.28,1.55,2.97,1530,2.89
O=C(O)c1cccc(C(=O)O)c1S(=O)Cc1ccccc1 (stereo not given),,> 100,,> 100,,> 100,,> 100,,> 100,,> 100,,> 100,,> 100,,> 100,,> 100
COc1ncnc(NS(=O)(=O)c2ccc(N=C3C(=O)N(CN4CCN(c5c(F)cc6c(=O)c(C(=O)O)cn(C7CC7)c6c5OC)CC4C)c4ccc(Br)cc43)cc2)c1OC (stereo not given),176,0.477,17.3,> 50,7.1,41.9,8.79,27,> 50,> 50,5,> 50,15.3,> 50,6.76,29.4,5.58,> 50,2610,11.3
O=C(O)Cc1cccnc1,,> 100,,> 100,,> 100,,> 100,,> 100,,> 100,,> 100,,> 100,,> 100,,> 100
COC(=O)CCCCC(=O)c1c(C)[nH]c(/C=C2\N=C(c3ccc[nH]3)C=C2OC)c1C,414,1.5,1.22,2.57,0.723,2.09,1.46,3.6,1.14,2.47,0.87,2.38,0.451,1.76,0.47,1.88,0.802,2.17,1250,2.69
Cc1cccc2c3c(sc12)C(c1ccc(Cl)cc1)C(C#N)=C(N)O3 (stereo not given),1320,19,0.426,11.8,0.257,4.64,0.436,10.4,2.08,18.5,0.541,11.5,0.471,6.89,0.395,12.8,1.41,14.8,327,11.3
